Test results: patent US6875761B2 (Eisai Co., Ltd., priority 1997, dated 2005)
Structures can show the parent of a compound that is named as a salt.

Legend:
[1] = molecular target: T1, serotonin 1A receptor (Rattus norvegicus, UniProt P19327); test: Binding test on [3H] 8-hydroxy-dipropylaminotetralin, hippocampus receptor fraction; parameters: species or system SD rats; settings: rat hippocampus receptor fraction, 0.5 nM [3H] 8-OH-DPAT, room temperature 30 min; read-out: 5HT1
T1 construct: To the receptor fraction of the hippocampus were added a test compound and 0.5 nM of [^3H]; 8-hydroxy-dipropylaminotetralin; from tissue; host or cells: rat hippocampus membrane fraction
T1 sequence (P19327 1-422): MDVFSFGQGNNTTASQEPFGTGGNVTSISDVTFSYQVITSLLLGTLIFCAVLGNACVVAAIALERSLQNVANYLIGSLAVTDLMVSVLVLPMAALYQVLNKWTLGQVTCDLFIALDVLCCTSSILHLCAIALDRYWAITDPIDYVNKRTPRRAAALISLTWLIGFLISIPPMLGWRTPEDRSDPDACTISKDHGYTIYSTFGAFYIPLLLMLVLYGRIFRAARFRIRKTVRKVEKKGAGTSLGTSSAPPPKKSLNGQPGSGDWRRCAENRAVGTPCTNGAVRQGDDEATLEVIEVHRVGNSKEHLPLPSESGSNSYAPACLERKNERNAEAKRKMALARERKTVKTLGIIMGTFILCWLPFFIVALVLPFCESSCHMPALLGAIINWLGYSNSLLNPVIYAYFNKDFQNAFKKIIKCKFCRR

[2] = molecular target: T2, serotonin 2 receptor (Rattus norvegicus, UniProt P14842); test: Binding test on [3H] ketanserin, cerebral cortex receptor fraction; parameters: species or system SD rats; settings: 0.3 nM [3H] ketanserin, 37° C. 15 min, read-out: 5HT2
T2 construct: To the receptor fraction of the cerebral cortex were added a test compound and 0.3 nM of [^3H] ketanserin; from tissue; host or cells: rat cerebral cortex membrane fraction
T2 sequence (P14842 whole entry): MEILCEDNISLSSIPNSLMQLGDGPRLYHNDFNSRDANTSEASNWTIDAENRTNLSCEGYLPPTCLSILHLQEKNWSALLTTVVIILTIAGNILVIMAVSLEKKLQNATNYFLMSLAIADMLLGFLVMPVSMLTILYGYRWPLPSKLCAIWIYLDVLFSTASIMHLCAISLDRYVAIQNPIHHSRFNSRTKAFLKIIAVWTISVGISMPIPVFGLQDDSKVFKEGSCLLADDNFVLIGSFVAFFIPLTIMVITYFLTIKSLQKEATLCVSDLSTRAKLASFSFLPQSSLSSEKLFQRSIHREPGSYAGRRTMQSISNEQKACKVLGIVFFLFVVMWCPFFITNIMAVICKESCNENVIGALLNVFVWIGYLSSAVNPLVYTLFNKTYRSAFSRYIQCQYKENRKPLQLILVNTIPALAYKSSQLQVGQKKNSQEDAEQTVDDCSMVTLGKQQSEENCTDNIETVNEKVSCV

[3] = molecular target: α1 adrenalin receptor; test: Binding test on [3H] prazosin, cerebral cortex receptor fraction; parameters: species or system SD rats; settings: rat cerebral cortex receptor fraction, about 0.2 nM [3H] prazosin, room temperature 60 min; read-out: α 1
Procedure: As radioisotope-labeled compounds, use was made of the following reagents (mfd. by NEN). • 3) [^3H] […] Prazosin.
Use was made of SD rats aged 6 to 8 weeks.
The rats were sacrificed by dcapitation to extirpate the cerebra.
Each mixture was homogenized by using a Teflon glass homogenizer and centrifuged as 1,000× g for 10 min. The supernatant thus obtained was further centrifuged at 20,000× g for 20 min. […] After centrifuging at 20,000× g for 20 min, the obtained precipitate was further suspended and centrifuged twice each in the same manner. […] This receptor fraction was stored at −80° C. until using.
IC50 was calculated by the probit method, while Ki was determined in accordance with the following formula: Ki=IC50(1+c/Kd) wherein c represents the concentration of the radioisotope-labeled compound, and Kd represents the dissociation constant of the radioisotope-labeled compound with respect to the receptor determined by Scatchard's analysis. (Binding test on [^3H] prazosin)
To the receptor fraction of the cerebral cortex were added a test compound and about 0.2 nM of [^3H] prazosin and the resultant mixture was incubated at room temperature for 60 min. Next, it was filtered through a glass filter with the use of a cell harvester. After washing the glass filter with 50 mM Tris hydrochloride (pH 7.4), the radioactivity of the receptor was measured with a liquid scintillation counter. The binding detected in the presence of 10 μM of phentolamine was referred to as the nonspecific binding.

Row | Structure (SMILES) | melting point | Ki [1] [nM] | Ki [2] [nM] | Ki [3] [nM]
1 | CCN1CCN(c2nc(-c3ccc(OCC(C)O)cc3)cc3cccnc23)CC1 (stereo in doubt) (as salt: hydrochloride) [Example 246, 8-(1-ethylpiperazin-4-yl)-6-{4-[(S)-2-hydroxypropoxy}phenyl]-1,7-naphthyridine Dihydrochloride] | 136 to 140 °C | – | – | –
2 | CCN1CCN(c2nc(-c3ccc(O[C@H](C)CO)cc3)cc3sccc23)CC1 (stereo in doubt) (as salt: hydrochloride) [Example 463, 4-(4-ethylpiperazin-1-yl)-6-[4-(2-hydroxy-1-methylethoxy)phenyl]thieno[3,2-c]pyridine dihydrochloride] | 124 to 125 °C | – | – | –
3 | CCN1CCN(c2nc(C=C(COC)c3ccccc3)cc3ccccc23)CC1 (stereo in doubt) (as salt: oxalate) [Example 208, 3-[(E)-2-Methoxymethyl-2-Phenylethenyl]-1-(4-Ethylpiperazin-1-Yl)Isoquinoline Oxalate] | 180 to 182 °C | – | – | –
4 | CCN1CCN(c2nc(CCCCOCc3ccccc3)cc3ccccc23)CC1 [Example 1, 3-(4-benzyloxybutyl)-1-(4-ethylpiperazin-1-yl)isoquinoline Dihydrochloride] | – | 21.2 | 36.4 | > 2000
5 | CCN1CCN(c2nc(-c3ccc(OC)cc3OC)cc3ccccc23)CC1 [Example 12, 3-(2,4-dimethoxyphenyl)-1-(4-ethylpiperazin-1-yl)isoquinolin Dihydrochloride] | – | 140 | 5.32 | 4110
6 | CCN1CCN(c2nc(-c3cc(OC)c(OC)cc3OC)cc3ccccc23)CC1.Cl [Example 16, 1-(4-ethylpiperazin-1-yl)-3-(2,4,5-trimethoxyphenyl)isoquinoline dihydrochloride] | 158 to 160 °C | 30 | 44 | –
7 | CCC(O)c1ccc(-c2cc3ccccc3c(N3CCN(CC)CC3)n2)cc1 (stereo not shown) [Example 19, 1-(4-ethylpiperazin-1-yl)-3-[4-(1-hydroxypropyl)phenyl]isoquinoline hydrochloride] | – | 6.9 | 1.6 | 373
8 | CCN1CCN(c2nc(-c3ccc(CCCO)cc3)cc3ccccc23)CC1 [Example 20, 1-(4-ethylpiperazin-1-yl)-3-[4-(3-hydroxypropyl)phenyl]isoquinoline hydrochloride] | – | 14.5 | 2.6 | 868
9 | CCCC(O)c1ccc(-c2cc3ccccc3c(N3CCN(CC)CC3)n2)cc1 (stereo not shown) [Example 21, 1-(4-ethylpiperazin-1-yl)-3-[4-(1-hydroxybutyl)phenyl]isoquinoline oxalate] | – | 17.2 | 4.3 | 636
10 | CCN1CCN(c2nc(-c3ccc(CCC(C)O)cc3)cc3ccccc23)CC1 (stereo not shown) [Example 22, 1-(4-ethylpiperazin-1-yl)-3-[4-(3-hydroxybutyl)phenyl]isoquinoline oxalate] | – | 9.4 | 1.5 | 3100
11 | CCN1CCN(c2nc(-c3ccc(CCCCO)cc3)cc3ccccc23)CC1 [Example 23, 3-[4-(4-hydroxybutyl)phenyl]-1-(4-ethylpiperazin-1-yl)isoquinoline hydrochloride] | – | 16.8 | 6.4 | 1250
12 | CCN1CCN(c2nc(-c3ccc(CCCO)c(F)c3)cc3ccccc23)CC1 [Example 29, hydrochloride] | – | 9.6 | 3.5 | 668
13 | CCN1CCN(c2nc(-c3ccc(CCCO)c(C(N)=O)c3)cc3ccccc23)CC1 [Example 31, 3-[3-carboxamide-4-(3-hydroxypropyl)phenyl]-1-(4-ethylpiperazin-1-yl)isoquinoline] | 213 to 218 °C (dec.) | 10.7 | 30.3 | –
14 | CCN1CCN(c2nc(-c3ccc(CCCO)c(C#N)c3)cc3ccccc23)CC1 [Example 32, 3-[3-cyano-4-(3-hydroxypropyl)phenyl]-1-(4-ethylpiperazin-1-yl)isoquinoline hydrochloride] | – | 10.1 | 7.8 | 500
15 | CCN1CCN(c2nc(-c3ccc(CCCO)c(OC)c3)cc3ccccc23)CC1 [Example 33, 1-(4-ethylpiperazin-1-yl)-3-[4-(3-hydroxypropyl)-3-methoxyphenyl]isoquinoline hydrochloride] | – | 7.9 | 10.9 | 758
16 | CCN1CCN(c2nc(-c3ccc(OCCO)cc3)cc3ccccc23)CC1 [Example 36, 1-(4-ethylpiperazin-1-yl)-3-[4-(2-hydroxyethoxy)phenyl]isoquinoline dihydrochloride] | – | 18.8 | 3.9 | 1220
17 | CCN1CCN(c2nc(-c3ccc(OCCOC)cc3)cc3ccccc23)CC1 [Example 42, 1-(4-ethylpiperazin-1-yl)-3-[4-(2-methoxyethoxy)phenyl]isoquinoline dihydrochloride] | – | 33.1 | 4.4 | 2450
18 | CCN1CCN(c2nc(-c3ccc(OCCF)cc3)cc3ccccc23)CC1 [Example 45, 1-(4-Ethylpiperazin-1-Yl)-3-[4-(2-Fluoroethoxy)Phenyl]Isoquinoline Dihydrochloride] | – | 45 | 1.1 | 1220
19 | CCN1CCN(c2nc(-c3ccc(OCCC#N)cc3)cc3ccccc23)CC1 [Example 52, 3-[4-(2-Cyanoethoxy)Phenyl]-1-(4-Ethylpiperazin-1-Yl)Isoquinoline Hydrochloride] | – | 23.5 | 0.6 | 555
20 | CCN1CCN(c2nc(-c3ccc(/C=N\O)cc3)cc3ccccc23)CC1.Cl [Example 60, (Z)-1-(4-Ethylpiperazin-1-Yl)-3-(4-Hydroxyiminomethylphenyl)Isoquinoline Hydrochloride] | 239 °C (dec.) | 21.3 | 9.1 | –
21 | CCN1CCN(c2nc(-c3ccc(/C=N/O)cc3)cc3ccccc23)CC1.Cl [Example 61, (E)-1-(4-Ethylpiperazin-1-Yl)-3-(4-Hydroxyiminomethylphenyl)Isoquinoline Hydrochloride] | 243 °C (dec.) | 11.7 | 8.2 | –
22 | CCN1CCN(c2nc(CCc3ccc(OCCO)cc3)cc3ccccc23)CC1 [Example 109, 1-(1-Ethylpiperazin-4-yl)-3-[4-(2-hydroxyethoxy)phenethyl]isoquinoline] | – | – | – | > 2000
23 | CCN1CCN(c2nc(-c3ccc(C4CCOCC4)s3)cc3ccccc23)CC1.Cl [Example 166, 3-[2-(tetrahydropyran-4-yl]thiophen-5-yl]-1-(4-ethylpiperazin-1-yl)isoquinoline hydrochloride] | 251 to 253 °C | 81.9 | 11.5 | –
24 | COc1ccc(-c2cc3ccccc3c(N3CCN(CCO)CC3)n2)cc1 [Example 242, 1-[4-(2-hydroxyethyl)piperazin-1-yl]-3-(4-methoxyphenyl)isoquinoline Dihydrochloride] | – | – | – | 1790
25 | CCN1CCN(c2nc(-c3ccc(OCCO)cc3)cc3sccc23)CC1 [Example 286, dihydrochloride] | – | – | – | 305
26 | CCCN1CCN(c2nc(-c3ccc(OCC(C)(C)O)cc3)cc3sccc23)CC1 [Example 289, 6-[4-(2-methyl-2-hydroxypropoxy)phenyl]-4-(4-propylpiperazin-1-yl)thieno[3,2-c]pyridine hydrochloride] | – | – | – | 1310
